Measured values reported in patent US6586241B1, “Methods to identify compounds affecting mitochondria” (Johns Hopkins University, priority 1998, dated 2003).
Entries after “also recorded” stand apart in the source; their conditions may differ. Like-named read-outs stand apart in the source and are kept apart here. One block for each compound: values may come before it.

Legend:
[1] = tested on: mitochondria of ventricular myocytes; format: cell-based, rabbit; conditions: sequential exposure diazoxide, DNP, CN; FIG. 8
Protocol: In the following Examples, Confocal images were obtained using a Diaphot 300 inverted fluorescence microscope with a PCM-2000 confocal scanning attachment (Nikon, Inc.). Fluorescence was excited by the 488 nm line of an argon laser and the emission at 505-535 nm was recorded. A time series of images was collected at intervals of ˜10 sec and baseline, diazoxide, DNP and CN images were enhanced by averaging 8-10 sequential images having stable mean fluorescence intensities during the exposure to each agent.
To localize mitochondria, cells were loaded with 100 nM TMRE, which distributes into negatively charged cellular compartments, for 10 min., (Lemasters, J. J., et al., “Measurement of electrical potential, pH, and free calcium ion concentration in mitochondria of living cells by laser scanning confocal microscopy”, in Anonymous: Methods in Enzymology., New York, Academic Press, 1995, pp 429-417). TMRE fluorescence was excited with the 535 nm line of a helium neon laser and recorded at greater than 605 nm. A pseudocolor palette was applied to visualize the relative increase in mitochondrial flavoprotein oxidation state.
Images were analyzed on a personal computer using the software program ImageTool (University of Texas Health Sciences Center in San Antonio). All the recordings were performed at room temperature (21-22° C.).

[2] = target: T1, sarcolemmal KATP channels (Oryctolagus cuniculus, UniProt O02822+P82451); assay: Whole-cell patch recording of sarcolemmal KATP current (IKATP); format: cell-based, rabbit; conditions: for activation of IKATP: treatment with diazoxide and 5-HD, FIG. 4
T1 construct: ventricular myocytes were isolated from adult rabbit hearts by conventional enzymatic dissociation; endogenous in cells; host or cells: primary adult rabbit ventricular myocytes
From the text: (§1) In the following Examples, ventricular myocytes were isolated from adult rabbit hearts by conventional enzymatic dissociation, according to Liu, Y., et al., “Synergistic modulation of ATP-sensitive K^+ currents by protein kinase C and adenosine: implications for ischemic preconditioning”, Circ. Res., 1996, 78: 443-454, then washed several times with calcium-free solution. […].
(§2) For whole-cell patch recordings, the internal pipette solution contained (in mM): 120 K-glutamate, 25 KCI, 0.5 MgCl2, 10 K-EGTA, 10 HEPES and 1 MgATP (pH 7.2 with KOH). The external solution included (in mM): 140 NaCl, 5 KCI, 1 CaCl2, 1 MgCl2, and 10 HEPES (pH 7.4 with NaOH). Whole-cell currents were elicited every 6 sec from a holding potential of −80 mV by two consecutive steps to −40 mV (for 100 msec) and 0 mV (for 380 msec). Currents at 0 mV were measured 200 msec into the pulse. Endogenous flavoprotein fluorescence was excited using a xenon arc lamp with a bandpass filter centered at 480 nm, but only during the 100 msec step to −40 mV t to minimize photobleaching. Emitted fluorescence was recorded at 530 nm by a photomultiplier tube and digitized (Digidata 1200, Axon Instruments). (See Paucek, P., et al., “Cardioprotective effect of diazoxide and its interaction with mitochondrial KATP: possible mechanism of cardioprotection”, J. Mol Cell Cardiol, 1997, 29: A199(Abstract)). Relative fluorescence was averaged during the excitation window and calibrated using the values after dinitrophenol (DNP) and sodium cyanide (CN) exposure.

[3] = tested on: mitochondrial flavoprotein oxidation (mitochondrial KATP channels); assay: Flavoprotein fluorescence measurement of mitochondrial redox state in intact ventricular myocytes; format: cell-based, rabbit
From the text: as §1, §2

intact hearts = conditions: Paucek et al. 1997; cited from earlier work
[4] = tested on: rabbit ventricular myocytes; assay: Simulated ischemia (cell pelleting) and cellular injury, trypan blue; format: cell-based; conditions: for cytotoxicity at 50 µM: Oryctolagus cuniculus, Ventricular myocyte, 50 μM diazoxide, read-out: cells killed (% of viable cells prior to ischemia)
Protocol: In the following Examples, the procedure to determine cell injury was modified from […] al. […]., et al., “An in vitro model of myocardial ischemia utilizing isolated adult rat myocytes”, J. Mol. Cell Cardiol, 1990, 22: 165-181. After cell isolation, cells were washed with incubation buffer (in mM): NaCl 119, NaHCO3 25, KH2PO4 1.2, KCl 4.8, MgSO4 1.2, HEPES 10, glucose 11, and supplemented with creatine, taurine and amino acids (pH 7.4). Calcium was added into the buffer stepwise (0.25 mM every 5 minutes) to a final concentration of 1 mM. An aliquot of each cell suspension (0.5 ml) was placed in a 0.5 ml microcentrifuge tube and centrifuged for 20 seconds into a pellet. Each pellet occupied a volume of about 0.2 ml. Approximately 0.25 ml of excess supernatant was removed to leave a thin fluid layer above the pellet, and 0.2 ml of mineral oil was layered on the top of the pellet to exclude gaseous diffusion. After 60 min and 120 min of pelleting, 5 μl of cell pellet were sampled through the oil layer and mixed with 75 µl of 85 mOsm hypotonic staining solution (in mM): […] Microscopic examination was performed 2-5 min after mixing to determine the permeability of the cells to trypan blue. Cells permeable to trypan blue were counted as dead and expressed as a percentage of the total cells counted (>200 for each sample). The killing of cells by ischemia was quantified as percentage of the vital cells at the beginning of each experiment (78-90% of total, mean=82±1% n=24). The small percentage of cells ( 18%) that were non-viable at the beginning of the experiment were mostly rounded and had been damaged as a known consequence of the enzymatic isolation process. Mitra, R., et al., “A uniform enzymatic method for dissociation of myocytes from hearts and stomachs of vertebrates”, Am. J. Physiol, 1985, 249: […]-[…]. Individual experiments in each of four groups were performed on cells isolated from different hearts. In the control group (Cont), cells were pelleted and sampled at the 60 min and 120 min. For the diazoxide-treated group (Diazo), 50 μM of diazoxide was added into the solution 15 min before the pelleting. In the third group (5-HD), 100 μM of 5-HD was added into the cell suspension 20 min prior to pelleting. Cells in the Diazo+5HD group were treated the same as in the third group except that 50 μM of diazoxide was added into the cell suspension 15 min before pelleting. Once applied, drugs were not washed out, and thus were present throughout the period of simulated ischemia.

T1 sequence (P82451 whole entry): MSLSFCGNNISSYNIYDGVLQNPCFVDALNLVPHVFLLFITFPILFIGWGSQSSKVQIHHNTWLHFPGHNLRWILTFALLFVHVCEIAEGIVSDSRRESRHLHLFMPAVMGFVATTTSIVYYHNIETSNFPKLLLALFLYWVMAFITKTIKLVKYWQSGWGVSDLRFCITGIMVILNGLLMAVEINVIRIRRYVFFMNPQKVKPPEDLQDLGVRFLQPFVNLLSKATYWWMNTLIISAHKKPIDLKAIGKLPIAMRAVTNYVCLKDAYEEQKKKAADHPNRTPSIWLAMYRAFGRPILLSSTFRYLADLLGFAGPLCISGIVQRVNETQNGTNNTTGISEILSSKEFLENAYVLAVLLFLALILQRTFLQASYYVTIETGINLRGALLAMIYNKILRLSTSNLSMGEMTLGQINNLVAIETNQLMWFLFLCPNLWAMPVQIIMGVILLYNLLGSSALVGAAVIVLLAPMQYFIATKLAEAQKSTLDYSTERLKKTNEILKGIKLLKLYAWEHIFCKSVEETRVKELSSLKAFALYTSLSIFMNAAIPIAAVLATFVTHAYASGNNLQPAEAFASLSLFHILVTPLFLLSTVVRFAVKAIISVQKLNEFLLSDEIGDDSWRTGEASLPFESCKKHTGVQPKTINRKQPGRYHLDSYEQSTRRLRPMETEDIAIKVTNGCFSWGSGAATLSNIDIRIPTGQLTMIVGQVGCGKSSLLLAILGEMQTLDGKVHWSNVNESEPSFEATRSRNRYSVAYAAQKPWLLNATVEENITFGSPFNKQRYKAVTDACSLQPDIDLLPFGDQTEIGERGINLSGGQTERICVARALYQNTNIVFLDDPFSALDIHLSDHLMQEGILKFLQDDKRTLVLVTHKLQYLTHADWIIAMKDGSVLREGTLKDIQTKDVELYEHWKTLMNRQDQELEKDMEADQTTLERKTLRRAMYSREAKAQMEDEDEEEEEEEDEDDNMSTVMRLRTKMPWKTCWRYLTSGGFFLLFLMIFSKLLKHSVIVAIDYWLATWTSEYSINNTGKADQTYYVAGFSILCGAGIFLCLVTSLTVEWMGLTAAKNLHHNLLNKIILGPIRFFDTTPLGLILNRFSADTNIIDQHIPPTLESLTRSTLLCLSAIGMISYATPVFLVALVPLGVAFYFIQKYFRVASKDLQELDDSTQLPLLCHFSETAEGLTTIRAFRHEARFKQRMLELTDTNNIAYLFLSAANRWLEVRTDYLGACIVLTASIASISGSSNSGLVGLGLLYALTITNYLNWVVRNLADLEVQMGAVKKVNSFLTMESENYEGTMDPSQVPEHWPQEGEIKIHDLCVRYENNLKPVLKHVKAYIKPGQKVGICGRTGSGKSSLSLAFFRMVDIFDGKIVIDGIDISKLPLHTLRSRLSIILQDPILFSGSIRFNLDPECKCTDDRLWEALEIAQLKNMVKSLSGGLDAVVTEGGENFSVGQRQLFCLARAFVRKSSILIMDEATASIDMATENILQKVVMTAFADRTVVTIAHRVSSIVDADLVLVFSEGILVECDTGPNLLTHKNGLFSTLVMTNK
T1 sequence (O02822 whole entry): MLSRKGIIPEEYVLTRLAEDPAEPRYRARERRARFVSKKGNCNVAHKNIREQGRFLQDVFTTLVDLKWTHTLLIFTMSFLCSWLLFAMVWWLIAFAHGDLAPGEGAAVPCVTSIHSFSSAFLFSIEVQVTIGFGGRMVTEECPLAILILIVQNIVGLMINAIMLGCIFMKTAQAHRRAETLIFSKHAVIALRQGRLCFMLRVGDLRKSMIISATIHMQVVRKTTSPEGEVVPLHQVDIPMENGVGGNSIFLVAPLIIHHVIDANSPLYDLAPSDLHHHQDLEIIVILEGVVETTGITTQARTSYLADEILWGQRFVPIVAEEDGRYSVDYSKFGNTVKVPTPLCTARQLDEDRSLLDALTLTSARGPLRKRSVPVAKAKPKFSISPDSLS

- activation of IKATP [2]: did not activate
- EC50 ([3]; Oryctolagus cuniculus, Ventricular myocyte, FIG. 5, 5-6 cells per point, read-out: EC50 to induce mitochondrial oxidation): 27 µM
Structure (SMILES): CC1=NS(=O)(=O)c2cc(Cl)ccc2N1 [diazoxide]
- flavoprotein fluorescence, confocal images [1]: increased fluorescence in strips parallel to the myofibril orientation
- activation of IKATP / membrane currents ([2]; 100 μM, FIG. 1B): did not activate; also recorded: unchanged
- mitochondrial oxidation, % of the DNP value ([3]; 100 μM, first exposure DIAZO(1), FIG. 3): 48±3%
- oxidation of the flavoproteins (flavoprotein fluorescence) ([3]; 100 μM, FIG. 1A): induced reversible oxidation
- mitochondrial oxidation ([3]; diazoxide exposure in the same cell as pinacidil): 41±5%
- flavoprotein oxidation, % of the DNP value ([3]; second exposure DIAZO(2) after washout, same cells, FIG. 3): 43±5%
- cardioprotective EC25 (intact hearts): 11 µM
- cytotoxicity at 50 µM ([4]; 1 h, 60 min simulated ischemia): 18 ± 3%
- cytotoxicity at 50 µM ([4]; 2 h, 120 min simulated ischemia): 23 ± 4%
- protection of ventricular myocytes compared with preconditioning ([4]; cellular ischemia model): to the same extent as preconditioning

- sarcolemmal IKATP ([2]; pinacidil 100 μM, measured at 0 mV, FIG. 6B): 0.74±0.54 nA
Structure (SMILES): CC(N/C(=N\C#N)Nc1ccncc1)C(C)(C)C (centres unmarked) [pinacidil]
- mitochondrial oxidation ([3]; pinacidil 100 μM, FIG. 6A): 35±8%

Structure (SMILES): COc1ccc(Cl)cc1C(=O)NCCc1ccc(S(=O)(=O)NC(=O)NC2CCCCC2)cc1 [Glybenclamide]
- block of the protection from diazoxide ([4]; 1 μM glybenclamide, data not shown): blocked the protection

- activation of IKATP [2]: did not activate
Structure (SMILES): CCCCCC(O)CCCC(=O)O.[Na] (centres unmarked) [5-HD, 5-hydroxydecanoic acid sodium]
- attenuation of the oxidative effect of diazoxide ([3]; 100 μM 5-HD in the presence of diazoxide, FIG. 3): about half
- block of flavoprotein oxidation induced by diazoxide ([3]; FIG. 2a): reversibly blocks
- flavoprotein oxidation, % of the DNP value ([3]; diazoxide in the presence of 500 μM 5-HD, FIG. 3): 8±3%
- block of the protection by diazoxide ([4]; 100 μM 5-HD): completely blocked
